pIC50: −log10 of the molar value. Where a name gives a salt, the structure may show the parent alone.
System: interleukin-1β production
Assay: Inhibitory activity against interleukin-1β production (LPS-stimulated HL-60 cells, ELISA)
Assay type: cell-based
Conditions: Homo sapiens, 72 h, lipopolysaccharide 10 μg/mL, 3 days, Table 1, read-out: IL-1β production inhibiting activity IC50
Protocol: Inhibitory Activity Against Interleukin-1β Production
HL-60 cells were cultured for 4 days until confluence on RPMI 1640 medium with 10% fetal bovine serum (FBS) added thereto. The medium was centrifuged. The supernatant was discarded, and the cells were then suspended at 1×10^6 cells/mL on RPMI 1640 medium with 3% FBS, and lipopolysaccharide was added to give a final concentration of 10 μg/mL. The culture was inoculated at 1 mL/well to a 24-well plate. A sample compound was added at 1 μL/well, followed by culturing for 3 days. Three days later, the amount of interleukin-1β in each culture was determined by ELISA. Each IC50 value was determined by a comparison in yield with a control to which no test sample was added.

| pIC50 | SMILES |
| --- | --- |
| 6.62 | COc1ccc(-c2cc(CCCN3CCNCC3)c(=O)n(CC3CC3)n2)cc1F [Example 213, 2-cyclopropylmethyl-6-(3-fluoro-4-methoxyphenyl)-4-[3-(1-piperazinyl)propyl]-2H-pyridazin-3-one] |
| 5.94 | COc1ccc(-c2cc(CCCN)c(=O)n(CC3CC3)n2)cc1F [Example 216, 4-(3-aminopropyl)-2-cyclopropylmethyl-6-(3-fluoro-4-methoxyphenyl)-2H-pyridazin-3-one] |

Same assay, conditions: Homo sapiens, 72 h, lipopolysaccharide 10 μg/mL, 3 days, Table 2, read-out: IL-1β production inhibiting activity IC50

| pIC50 | SMILES |
| --- | --- |
| 5.51 | COc1ccc(-c2cc(CN3CCN(CCO)CC3)c(=O)n(CC=Cc3ccc(Cl)cc3)n2)cc1F [Example 210, 2-(4-chlorocinnamyl)-6-(3-fluoro-4-methoxyphenyl)-4-[4-(2-hydroxyethyl)-1-piperazinyl]methyl-2H-pyridazin-3-one] |

Same assay, conditions: lipopolysaccharide 10 μg/mL, 3 days, Table 1, read-out: IL-1β production inhibiting activity IC50

| SMILES | pIC50 |
| --- | --- |
| Cc1ccc(-c2cc(CN(CCO)CCO)c(=O)n(CC(C)C)n2)cc1 [Example 49, 4-N,N-bis(2-hydroxyethyl)aminomethyl-6-(4-methylphenyl)-2-isobutyl-2H-pyridazin-3-one hydrochloride] | 5.45 |

System: not given
Assay: not given
Conditions: not given

| SMILES | melting point |
| --- | --- |
| CN1CCN(Cc2cc(-c3ccc([S+](C)[O-])cc3)nn(CC3CC3)c2=O)CC1.Cl.Cl (centres unmarked) | 80 °C (dec.) |
| Cc1c(-c2ccc([S+](C)[O-])cc2)nn(CC(C)C)c(=O)c1N1CCN(C)CC1.Cl.Cl (centres unmarked) | 224.5 to 229.1 °C (dec.) |
| CC(C)Cn1nc(-c2ccc([S+](C)[O-])cc2)cc(CN(C)C)c1=O.Cl (centres unmarked) | 204.2 to 206 °C |
| CN1CCN(Cc2cc(-c3ccc(S(C)(=O)=O)cc3)nn(CC3CC3)c2=O)CC1.Cl.Cl | 209 to 211.4 °C |
| Cc1c(-c2ccc(S(C)(=O)=O)cc2)nn(CC2CC2)c(=O)c1N(C)C.Cl | 239.5 to 240.7 °C |
| CC(C)Cn1nc(-c2ccc(S(C)(=O)=O)cc2)cc(CN(C)C)c1=O.Cl | 221.4 to 223.3 °C |
| COc1ccc(-c2cc(CN(C)C)c(=O)n(CC(C)C)n2)cc1F.Cl | 212.4 to 212.8 °C |
| Cc1c(-c2ccccc2)nn(CC(C)C)c(=O)c1N1CCNCC1.Cl.Cl | 154.3 to 159.5 °C |
| Cc1c(-c2ccccc2)nn(CC(C)C)c(=O)c1N1CCN(C)CC1.Cl.Cl | 243.8 to 244.3 °C |
| CC(C)Cn1nc(-c2ccccc2)cc(CN(C)C)c1=O.Cl | 221.7 to 222.3 °C |
| Cc1c(-c2ccc(C(F)(F)F)cc2)nn(CC(C)C)c(=O)c1N1CCN(C)CC1.Cl.Cl | 249.9 to 252.8 °C |
| CC(C)Cn1nc(-c2ccc(C(F)(F)F)cc2)cc(CN(C)C)c1=O.Cl | 242.2 to 242.3 °C |
| Cc1c(-c2ccc(-c3ccccc3)cc2)nn(CC(C)C)c(=O)c1N(C)C.Cl | 243.9 to 244.1 °C |
| COc1ccc(-c2cc(CN3CCN(C)CC3)c(=O)n(CC(C)C)n2)cc1Cl.Cl.Cl | 235.8 to 236.7 °C |
| COc1ccc(-c2cc(CN(C)C)c(=O)n(CC(C)C)n2)cc1Cl.Cl | 213.6 to 214.3 °C |
| CNCc1cc(-c2ccc(OC)c(F)c2)nn(CC2CC2)c1=O | 169.1 to 170.7 °C |
| Cc1ccc(-c2cc(CN)c(=O)n(CC(C)C)n2)cc1 [Example 50, 4-aminomethyl-2-isobutyl-6-(4-methylphenyl)-2H-pyridazin-3-one] | 74.9 to 77.9 °C |
| Cc1ccc(-c2nn(CC(C)C)c(=O)c(NC(CO)CO)c2C)cc1 [Example 52, 4-(1,3-dihydroxypropan-2-yl)amino-methyl-2-isobutyl-6-(4-methylphenyl)-2H-pyridazin-3-one] | 134.1 to 135.2 °C |
| CSc1ccc(-c2nn(CC3CC3)c(=O)c(N(C)C)c2C)cc1.Cl [Example 153, 2-cyclopropylmethyl-4-dimethylamino-methyl-6-[4-(methylthio)phenyl]-2H-pyridazin-3-one hydrochloride] | 230.2 to 232.3 °C |
| COc1ccc(-c2cc(CN(C)C)c(=O)n(CCCc3ccc(F)cc3)n2)cc1F [Example 197, 4-dimethylaminomethyl-6-(3-fluoro-4-methoxyphenyl)-2-[3-(4-fluorophenyl)propyl]-2H-pyridazin-3-one] | 97 to 100 °C |
| COc1ccc(-c2cc(CN)c(=O)n(CCCc3ccc(F)cc3)n2)cc1F [Example 200, 4-aminomethyl-6-(3-fluoro-4-methoxyphenyl)-2-[3-(4-fluorophenyl)propyl]-2H-pyridazin-3-one] | 82 to 84 °C |

The next lines start with the values.

| melting point | SMILES |
| --- | --- |
| 182.5 to 186 °C | CC(C)Cn1nc(-c2ccc(F)c(F)c2)cc(CN2CCNCC2)c1=O.Cl.Cl |
| 242.5 to 243.4 °C | CC(C)Cn1nc(-c2ccc(F)c(F)c2)cc(CN2CCN(C)CC2)c1=O.Cl.Cl |
| 162.7 to 180.7 °C (dec.) | Cc1cc(-c2cc(CN3CCNCC3)c(=O)n(Cc3ccccc3)n2)ccc1F.Cl.Cl |
| 240 to 242.5 °C (dec.) | Cc1cc(-c2cc(CN3CCN(C)CC3)c(=O)n(Cc3ccccc3)n2)ccc1F.Cl.Cl |
| 225.3 to 226 °C | Cc1cc(-c2cc(CN(C)C)c(=O)n(Cc3ccccc3)n2)ccc1F.Cl |
| 171.1 to 187.1 °C (dec.) | Cc1cc(-c2cc(CN3CCNCC3)c(=O)n(CC=Cc3ccccc3)n2)ccc1F.Cl.Cl |
| 236.1 to 237.1 °C | Cc1cc(-c2cc(CN3CCN(C)CC3)c(=O)n(CC=Cc3ccccc3)n2)ccc1F.Cl.Cl |
| 183.6 to 184.5 °C | Cc1cc(-c2cc(CN(C)C)c(=O)n(CC=Cc3ccccc3)n2)ccc1F.Cl |
| 186.7 to 197 °C (dec.) | Cc1cc(-c2cc(CN3CCNCC3)c(=O)n(CC=Cc3ccc(Cl)cc3)n2)ccc1F.Cl.Cl |
| 201.3 to 201.9 °C | Cc1cc(-c2nn(CC=Cc3ccc(Cl)cc3)c(=O)c(N(C)C)c2C)ccc1F.Cl |
| 248.5 to 253.7 °C (dec.) | CSc1ccc(-c2cc(CN3CCNCC3)c(=O)n(CC(C)C)n2)cc1.Cl.Cl |
| 222.4 to 224.2 °C | CC(C)Cn1nc(-c2ccc(S(C)(=O)=O)cc2)cc(CN2CCNCC2)c1=O.Cl.Cl |
| 186.2 to 195 °C (dec.) | Cc1ccc(-c2cc(CN3CCNCC3)c(=O)n(CC(C)C)n2)cc1F.Cl.Cl |
| 246.4 to 249.7 °C (dec.) | Cc1cc(-c2cc(CN3CCN(C)CC3)c(=O)n(Cc3ccc(Cl)cc3)n2)ccc1F.Cl.Cl |
| 191 to 202 °C (dec.) | Cc1cc(-c2cc(CN3CCN(C)CC3)c(=O)n(Cc3ccccc3Cl)n2)ccc1F.Cl.Cl |
| 201.9 to 206.4 °C | Cc1cc(-c2cc(CN)c(=O)n(Cc3ccccc3Cl)n2)ccc1F.Cl |

| melting point | SMILES |
| --- | --- |
| 163 to 177 °C (dec.) | COc1ccc(-c2cc(CN3CCNCC3)c(=O)n(CC(C)C)n2)cc1F.Cl.Cl |
| 236.9 to 237 °C | COc1ccc(-c2cc(CN3CCN(C)CC3)c(=O)n(CC(C)C)n2)cc1F.Cl.Cl |
| 248.5 to 252 °C (dec.) | Cc1ccc(-c2cc(CN3CCN(C)CC3)c(=O)n(CC(C)C)n2)cc1F.Cl.Cl |
| 210.8 to 212.5 °C | CC(C)Cn1nc(-c2ccc(C(F)(F)F)cc2)cc(CN2CCNCC2)c1=O.Cl.Cl |
| 226.8 to 228 °C | CC(C)Cn1nc(-c2ccc(-c3ccccc3)cc2)cc(CN2CCNCC2)c1=O.Cl.Cl |
| 262.2 to 263.6 °C | CC(C)Cn1nc(-c2ccc(-c3ccccc3)cc2)cc(CN2CCN(C)CC2)c1=O.Cl.Cl |
| 203.6 to 204.5 °C | COc1ccc(-c2cc(CN3CCNCC3)c(=O)n(CC(C)C)n2)cc1Cl.Cl.Cl |
| 111.5 to 118 °C | COc1ccc(-c2cc(CN3CCNCC3)c(=O)n(CC3CC3)n2)cc1F [Example 20, 2-cyclopropylmethyl-6-(3-fluoro-4-methoxyphenyl)-4-(1-piperazinyl)methyl-2H-pyridazin-3-one] |
| 127 to 129 °C | COc1ccc(-c2cc(CN(C)C)c(=O)n(Cc3ccc(F)cc3)n2)cc1F [Example 190, 4-dimethylaminomethyl-2-(4-fluorobenzyl)-6-(3-fluoro-4-methoxyphenyl)-2H-pyridazin-3-one] |
| 145 to 149 °C | COc1ccc(-c2cc(CN)c(=O)n(Cc3ccc(F)cc3)n2)cc1F [Example 194, 4-aminomethyl-2-(4-fluorobenzyl)-6-(3-fluoro-4-methoxyphenyl)-2H-pyridazin-3-one] |
| 95.3 to 96.7 °C | COc1ccc(-c2cc(CN(C)C)c(=O)n(Cc3ccc(Cl)cc3)n2)cc1F [Example 203, 2-(4-chlorobenzyl)-4-dimethylaminomethyl-6-(3-fluoro-4-methoxyphenyl)-2H-pyridazin-3-one] |
| 128.5 to 131.4 °C | COc1ccc(-c2cc(CN)c(=O)n(Cc3ccc(Cl)cc3)n2)cc1F [Example 205, 4-aminomethyl-2-(4-chlorobenzyl)-6-(3-fluoro-4-methoxyphenyl)-2H-pyridazin-3-one] |
| 149.7 to 150.9 °C | Cc1cc(-c2cc(CN3CCN(C)CC3)c(=O)n(Cc3ccccc3Cl)n2)ccc1F [Example 224, 2-(2-chlorobenzyl)-6-(4-fluoro-3-methylphenyl)-4-(4-methyl-1-piperazinyl)methyl-2H-pyridazin-3-one] |
| 97.6 to 102.2 °C | Cc1cc(-c2cc(CN)c(=O)n(Cc3ccccc3Cl)n2)ccc1F [Example 237, 4-aminomethyl-2-(2-chlorobenzyl)-6-(4-fluoro-3-methylphenyl)-2H-pyridazin-3-one] |
| 108 to 109 °C | COc1ccc(-c2cc(CCCN3CCN(C)CC3)c(=O)n(Cc3ccc(F)cc3)n2)cc1F [Example 239, 2-(4-fluorobenzyl)-6-(3-fluoro-4-methoxyphenyl)-4-[3-(4-methyl-1-piperazinyl)propyl]-2H-pyridazin-3-one] |

From patent publication US6861428B2, “Water-soluble phenylpyridazine compounds and compositions containing the same” (Kowa Co., Ltd., priority 2001, dated 2005)
